Reference: patent publication US8129396B2, “2-[1H-benzimidazol-2(3H)-ylidene]-2-(pyrimidin-2-yl)acetamides and 2-[benzothiazol-2(3H)-ylidene]-2-(pyrimidin-2-yl)acetamides as kinase inhibitors” (Telik, Inc., priority 2008, dated 2012)

How the values were obtained:
VEGFR2 kinase = molecular target: T1, VEGFR2 kinase (Homo sapiens, UniProt P35968); assay: VEGFR2 kinase assay; format: biochemical; conditions: 6 μM ATP, 1 mM MnCl2; rounded to 1 significant figure
T1 construct: purchased Cell Signaling Technology
In short: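 VEGFR2 phosphorylates CSKtide with 6 μM ATP and 1 mM MnCl2 for 1 hr, otherwise following the Aurora A kinase protocol. Detection by IMAP fluorescence polarization, binding reagent diluted 1:1200 in 1:1 binding buffer A/B. Run in duplicate with solvent control.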

Aurora B kinase = molecular target: T2, Aurora B kinase (Homo sapiens, UniProt Q96GD4); assay: Aurora B kinase assay (IMAP fluorescence polarization); format: biochemical; conditions: 10 μM ATP; rounded to 1 significant figure; read-out: Aur-B IC50
T2 construct: purchased BPS Bioscience
In short: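 Reaction started with 100 nM fluorescein-labelled PKAtide and 10 μM ATP, run 45 min at room temperature, then stopped with IMAP binding reagent (1:400). After 30 min shaking at room temperature, fluorescence polarization read; run in duplicate with solvent control.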

[1] = test system: HL60 (human promyelocytic leukemia) cells; assay: HL60 cytotoxicity assay (CellTiter-Glo); format: cell-based; conditions: HL-60, 72 h, cytotoxicity, three days culture, read-out: HL60 IC50
Text: (§1) The cell lines HL60 (human promyelocytic leukemia) and HCT116 (human colon carcinoma) were obtained from the American Type Culture Collection, Manassas, Va., U.S.A., and HUVEC-2 (human umbilical vein endothelial cells) from BD Biosciences, Bedford, Mass., U.S.A. Aurora A kinase was obtained from Upstate Biotech, Billerica, Mass., U.S.A.; Aurora B kinase from BPS Bioscience, San Diego, Calif., U.S.A.; and VEGFR2 kinase from Cell Signaling Technology, Danvers, Mass., U.S.A. The IMAP FP Screening Express kit was obtained from Molecular Devices, Sunnyvale, Calif., U.S.A.; the CellTiter-Glo assay kit from Promega Corporation, Madison, Wis., U.S.A.; and the Cellular DNA Cytometric Analysis Reagent Kit and BrdU labeling and detection kit from Roche Diagnostics Corporation, Indianapolis, Ind., U.S.A. All products were used in accordance with manufacturer's directions. Kinase inhibition assays and the histone phosphorylation (p-H3) assay were conducted in duplicate, and the cytotoxicity and HUVEC proliferation assays were conducted in triplicate, in each case with solvent control.
Log-phase cells were trypsinized, collected by centrifugation, and resuspended in a small volume of fresh medium, and the density of viable cells was determined following Trypan Blue staining. Cells were diluted in fresh media (1×10^4 cells/mL for HL60 and 4×10^4 cells/mL for HCT116 cells), the test compounds (concentrations between 0.1 μM and 200 μM, dissolved in DMSO, 50 μL) added immediately after dilution to achieve a final DMSO concentration of 0.5%, then the suspensions added at 150 μL/well to 96-well plates, and incubated overnight to allow attachment in the case of adherent cells. The cells were cultured for three days (about three doubling times). The cells were then collected by centrifugation, and 100 μL of the culture supernatant was replaced by the CellTiter-Glo reagent. After incubation for 15 minutes at room temperature, the plate was read with a luminometer.

[2] = test system: HCT116 (human colon carcinoma) cells; assay: HCT116 cytotoxicity assay (CellTiter-Glo); format: cell-based; conditions: HCT-116, 72 h, cytotoxicity, three days culture, read-out: HCT116 IC50
p-H3 in HCT116 cells = assay: Histone phosphorylation (p-H3) assay; format: cell-based; conditions: Homo sapiens, HCT-116; HCT116 cells, 4 hr incubation; read-out: p-H3 IC50
In short: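 HCT116 cells (2.5×10^4/well, attached overnight) treated 4 h with 8-point 3-fold compound dilutions at 0.5% DMSO. Lysates dot-blotted onto nitrocellulose and probed for p-H3 with β-actin on the same membrane, fluorescent secondary antibodies, Odyssey scan; duplicate wells.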

Aurora A kinase = molecular target: T3, Aurora A kinase (Homo sapiens, UniProt O14965); assay: Aurora A kinase assay (IMAP fluorescence polarization); format: biochemical; conditions: 10 μM ATP; rounded to 1 significant figure; read-out: Aur-A IC50
T3 construct: purchased Upstate Biotech
T3 sequence (O14965 1-403): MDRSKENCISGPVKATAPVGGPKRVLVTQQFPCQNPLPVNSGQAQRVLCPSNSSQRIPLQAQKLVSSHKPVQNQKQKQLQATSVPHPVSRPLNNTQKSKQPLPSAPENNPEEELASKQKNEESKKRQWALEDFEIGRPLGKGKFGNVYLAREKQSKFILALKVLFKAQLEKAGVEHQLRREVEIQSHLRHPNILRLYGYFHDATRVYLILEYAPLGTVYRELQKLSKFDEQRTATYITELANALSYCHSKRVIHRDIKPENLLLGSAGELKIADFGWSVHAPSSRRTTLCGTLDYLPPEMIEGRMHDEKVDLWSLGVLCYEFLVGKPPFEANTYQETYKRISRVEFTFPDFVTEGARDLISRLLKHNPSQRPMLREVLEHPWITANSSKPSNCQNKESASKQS
In short: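 Compounds (eight 3-fold dilutions, 2.5% DMSO final) were preincubated 5 min at room temperature with Aurora A kinase in buffer with 1 mM DTT. Reaction with 100 nM fluorescein-PKAtide and 10 μM ATP ran 45 min at room temperature, then was stopped with IMAP binding reagent; fluorescence polarization was read after 30 min.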

[3] = test system: HUVEC-2 (human umbilical vein endothelial cells); assay: HUVEC VEGF-dependent proliferation assay (BrdU); format: cell-based; conditions: VEGF (25 ng/mL)-dependent proliferation, read-out: HUVEC IC50
Text: as §1
HUVEC-2 cells were seeded at 10^4 cells/well in a 96-well plate coated with 0.1% gelatin in complete medium. […] The compounds were serially diluted in DMSO, and added to the cells at 0.5% DMSO final concentration. After 2 hr, VEGF (25 ng/mL) was added; and after a further day, 5-bromo-2-deoxyuridine (BrdU, 10 μM) was added to label proliferating cells, and the cells incubated for another day. The plates were then processed using the Roche BrdU labeling and detection kit, and the VEGF-dependent antiproliferative activity of the compounds determined.

T2 sequence (Q96GD4 whole entry): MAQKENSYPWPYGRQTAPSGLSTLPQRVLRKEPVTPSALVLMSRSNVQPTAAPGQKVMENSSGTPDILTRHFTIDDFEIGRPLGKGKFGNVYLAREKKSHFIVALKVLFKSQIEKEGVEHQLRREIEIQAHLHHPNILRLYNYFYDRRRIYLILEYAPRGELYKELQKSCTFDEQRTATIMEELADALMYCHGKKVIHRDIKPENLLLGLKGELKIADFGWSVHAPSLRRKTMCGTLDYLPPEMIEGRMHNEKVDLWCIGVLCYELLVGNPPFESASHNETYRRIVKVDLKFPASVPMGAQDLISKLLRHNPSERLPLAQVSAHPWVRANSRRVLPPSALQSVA
T1 sequence (P35968 20-1356): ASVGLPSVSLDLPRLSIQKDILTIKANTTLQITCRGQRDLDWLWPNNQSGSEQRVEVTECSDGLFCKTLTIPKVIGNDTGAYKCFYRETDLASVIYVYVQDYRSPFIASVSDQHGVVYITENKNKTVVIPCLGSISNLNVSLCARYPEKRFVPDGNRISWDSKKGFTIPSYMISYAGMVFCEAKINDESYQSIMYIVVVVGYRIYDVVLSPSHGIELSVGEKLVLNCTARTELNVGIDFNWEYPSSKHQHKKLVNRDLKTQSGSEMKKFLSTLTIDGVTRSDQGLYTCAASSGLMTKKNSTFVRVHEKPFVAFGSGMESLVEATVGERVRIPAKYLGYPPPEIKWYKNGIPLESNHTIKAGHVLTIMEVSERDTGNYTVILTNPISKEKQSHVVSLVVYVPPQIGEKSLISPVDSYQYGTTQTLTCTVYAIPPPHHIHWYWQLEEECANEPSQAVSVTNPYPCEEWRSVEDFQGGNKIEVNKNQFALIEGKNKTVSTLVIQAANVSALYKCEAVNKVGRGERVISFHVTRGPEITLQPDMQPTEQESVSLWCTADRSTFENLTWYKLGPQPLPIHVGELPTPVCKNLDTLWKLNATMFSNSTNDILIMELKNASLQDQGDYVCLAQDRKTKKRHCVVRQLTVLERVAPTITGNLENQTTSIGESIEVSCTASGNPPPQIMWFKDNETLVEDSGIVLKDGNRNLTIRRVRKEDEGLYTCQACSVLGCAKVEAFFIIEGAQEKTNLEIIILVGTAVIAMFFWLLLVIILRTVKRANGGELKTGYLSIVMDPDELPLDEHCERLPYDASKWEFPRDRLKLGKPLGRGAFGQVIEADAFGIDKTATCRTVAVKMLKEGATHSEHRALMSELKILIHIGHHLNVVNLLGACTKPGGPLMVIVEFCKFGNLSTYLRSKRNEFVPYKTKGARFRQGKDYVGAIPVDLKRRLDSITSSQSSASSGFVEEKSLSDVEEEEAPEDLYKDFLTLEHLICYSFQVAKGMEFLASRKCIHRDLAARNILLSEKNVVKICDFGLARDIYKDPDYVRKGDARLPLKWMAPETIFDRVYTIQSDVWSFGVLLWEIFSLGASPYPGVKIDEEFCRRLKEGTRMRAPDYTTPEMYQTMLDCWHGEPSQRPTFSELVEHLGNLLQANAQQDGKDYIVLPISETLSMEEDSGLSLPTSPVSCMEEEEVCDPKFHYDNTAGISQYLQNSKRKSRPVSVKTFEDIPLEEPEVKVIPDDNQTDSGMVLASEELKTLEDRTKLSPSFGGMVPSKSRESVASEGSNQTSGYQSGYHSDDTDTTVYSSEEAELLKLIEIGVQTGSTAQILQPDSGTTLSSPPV

IC50 (VEGFR2 kinase) [nM]	IC50 (Aurora B kinase) [nM]	IC50 (p-H3 in HCT116 cells) [nM]	IC50 (Aurora A kinase) [nM]	Structure (SMILES)	IC50 [1] [nM]	IC50 [2] [nM]	IC50 [3] [nM]
40	10	400	10	NC(=O)C(=C1Nc2ccc(N)cc2S1)c1nccc(C(F)(F)F)n1 (single isomer, unassigned) [Compound 32A, 2-[6-aminobenzothiazol-2(3H)-ylidene]-2-(4-trifluoromethylpyrimidin-2-yl)acetamide]	3000	5000	–
60	8	1000	10	Cc1cc(C(F)(F)F)nc(/C(C(N)=O)=C2/Nc3ccccc3S2)n1 [Compound 8A]	200	2000	–
40	10	5000	10	NC(=O)/C(=C1\Nc2ccccc2S1)c1nc(-c2cccnc2)cc(C(F)(F)F)n1 [Compound 10A]	2000	1000	–
–	10	> 5000	40	NC(=O)/C(=C1\Nc2ccccc2S1)c1nc(-c2ccccn2)cc(C(F)(F)F)n1 [Compound 11A]	3000	4000	–
3	9	100	4	CCN(CCO)C(=O)c1ccc2c(c1)S/C(=C(/C(N)=O)c1nccc(C(F)(F)F)n1)N2 [Compound 31A]	1000	200	–
–	5	100	3	CCN(CCCn1ccnc1)C(=O)c1ccc2c(c1)S/C(=C(/C(N)=O)c1nccc(C(F)(F)F)n1)N2 [Compound 49A]	1000	400	–
–	7	100	20	Cn1ccnc1CCc1ccc2c(c1)S/C(=C(/C(N)=O)c1nccc(C(F)(F)F)n1)N2 [Compound 97A]	1000	600	–

Continued, compound first:

Structure (SMILES)	IC50 (VEGFR2 kinase) [nM]	IC50 (Aurora B kinase) [nM]	IC50 (p-H3 in HCT116 cells) [nM]	IC50 (Aurora A kinase) [nM]	IC50 [1] [nM]	IC50 [2] [nM]	IC50 [3] [nM]
NC(=O)C(=C1Nc2ccccc2S1)c1ncc(C(=O)O)c(C(F)(F)F)n1 (single isomer, unassigned) [Compound 5A, 2-[benzothiazol-2(3H)-ylidene]-2-(5-carboxy-4-trifluoromethylpyrimidin-2-yl)acetamide]	20	8	3000	20	> 10000	10000	–
CC(C)(C)c1cc(C(F)(F)F)nc(C(C(N)=O)=C2Nc3ccccc3S2)n1 (single isomer, unassigned) [Compound 7A, 2-[benzothiazol-2(3H)-ylidene]-2-[4-tert-butyl-6-(trifluoromethyl)pyrimidin-2-yl]acetamide]	30	20	> 5000	7	80	6000	–
Cc1cc(C(F)(F)F)nc(C(C(N)=O)=C2Nc3ccc(NC(=O)[C@@H]4CCCN4C)cc3N2)n1 (single isomer, unassigned) [Compound 144A]	–	6	100	5	500	400	–
COc1cc(C(F)(F)F)nc(/C(C(N)=O)=C2/Nc3ccccc3S2)n1 [Compound 6A]	200	10	2000	20	2000	4000	–
NC(=O)/C(=C1\Nc2ccccc2S1)c1nc(C(F)(F)F)cc(C(F)(F)F)n1 [Compound 9A]	60	7	> 5000	10	> 20000	> 20000	–
NC(=O)C(=C1Nc2ccccc2N1)c1nc(N)cc(C(F)(F)F)n1 [Compound 12A]	40	6	100	7	200	400	–
NC(=O)/C(=C1\Nc2ccccc2S1)c1nc(N)cc(C(F)(F)F)n1 [Compound 13A]	–	3	800	10	1000	700	–
COc1ccnc(C(C(N)=O)=C2Nc3ccccc3N2)n1 [Compound 17A]	1	30	600	300	5000	5000	–
NC(=O)/C(=C1\Nc2ccccc2S1)c1nccc(-c2ccccc2)n1 [Compound 20A]	200	20	> 5000	90	600	8000	–
NC(=O)/C(=C1\Nc2ccc(NC(=O)C3CC3)cc2N1)c1nccc(C(F)(F)F)n1 [Compound 33A]	9	10	500	2	300	300	–
NC(=O)/C(=C1\Nc2ccc(NC(=O)C3(N)CC3)cc2N1)c1nccc(C(F)(F)F)n1 [Compound 34A]	10	6	400	5	200	600	–
NC(=O)C(=C1Nc2ccccc2N1)c1ncc(C(=O)NCCCN2CCOCC2)c(C(F)(F)F)n1 [Compound 132A]	100	20	2000	60	–	1000	600
Cc1cc2c(cc1C)NC(=C(C(N)=O)c1ncc(C(=O)NCCCN3CCOCC3)c(C(F)(F)F)n1)N2 [Compound 133A]	60	10	300	40	–	800	200
NC(=O)/C(=C1\Nc2ccccc2S1)c1ncc(C(=O)NCCN2CCOCC2)c(C(F)(F)F)n1 [Compound 134A]	80	10	400	50	–	4000	600
NC(=O)C(=C1Nc2ccccc2N1)c1ncc(C(=O)NCCN2CCOCC2)c(C(F)(F)F)n1 [Compound 135A]	100	20	500	30	–	4000	600
CCN(C(=O)CN1CCCCC1)c1ccc2c(c1)N/C(=C(/C(N)=O)c1nccc(C(F)(F)F)n1)N2 [Compound 146A]	–	5	200	20	800	400	–
